We go through 88 molecules from a melting point compilation (Tetko et al.; mined from patent text by program, amines drawn as free bases though some values may be those of a salt).

Take `COC(=O)c1nc(Cl)nc(N)c1OC`: the melting point (as a rule, the temperature, or range, at which the solid turns liquid) is 158 °C.

As to `CN(Cc1ccccc1)c1nc(=O)c2cc(C(F)(F)F)cc([N+](=O)[O-])c2s1`, the melting point fell in the range of 120 to 124 °C. As for `O=C1c2ccc(N3CCCC3)c3c(Cl)c(Cl)cc(c23)C(=O)N1O`, the melting point fell in the range of 200 to 201 °C. To `COCCN1CCc2ccc(Nc3ncc(Cl)c(Nc4ccccc4C(=O)NCC(C)C)n3)cc2CC1` belongs 178 to 181 °C; to `COc1ccc(O)c(Br)c1`, 37 to 38 °C; to `Nc1cccc(OCc2ncc3ccccc3n2)c1`, 103 to 107 °C. To `CSc1csc(NC(=O)c2ccc(OC(C)=O)cc2)n1` belongs 186 to 189 °C; to `O=c1oc2cccnc2n1CCN1CCN(c2cccc(C(F)(F)F)c2)CC1`, 92 to 93 °C. To `CC(C)Cn1nc(OCCCc2ccc(OC(C)C)cc2Oc2ncc(C(F)(F)F)cc2Cl)cc1CCC(=O)O` belongs 71 to 73 °C; to `CN1c2ccc(C=O)cc2CCC1c1ccccc1` (stereo not drawn), 86 to 89 °C.

Consider `O=C1CCC(N2Cc3c(OCc4ccc(CN5CCNCC5)cc4)cccc3C2=O)C(=O)N1` (stereo not drawn), for which the melting point was 196 to 198 °C. To `CC=Cc1cc(OC)cc2cc(-c3ccc(OC)cc3)oc12` belongs 116 to 118 °C. To `Cn1c(CCN2CCN(c3ccc(Cl)cc3)CC2)nc2ccc3ccccc3c21` belongs 213 to 215 °C; to `CCCn1c(-c2ccc(O)cc2)cnc1SC`, 157 °C; to `CC(C)(C)c1ccc(C(=O)Nc2cn3cc(-c4cn[nH]c4)ccc3n2)cc1`, 278 to 280 °C. `CCCCCCCCC#CCC#CCC#CCSCC(=O)NCCO` came in with a melting point of 77 °C. To `Fc1ccccc1-c1ccc2nnn(Cc3ccc4ncccc4c3)c2n1` belongs 164 to 166 °C. To `CCCC(c1ccc(C)cc1)n1cncc1C(=O)OC` (stereo not drawn) belongs 141 to 143 °C; to `CC(=O)N1CCC(COCc2cc(C(F)(F)F)cc(C(F)(F)F)c2)(c2ccccc2)CC1`, 64 to 65 °C; to `CC(=Cc1ccccc1)c1ccc2c(c1)C(C)(C)CCO2`, 64 to 65 °C.

`Cc1cccc(-c2nc(NCc3ccc(Cl)cc3)c3ccccc3n2)n1` displayed a melting point of 210 to 212 °C. To `CC(C)(C)c1cc(I)c2c(c1)CNC1(CCCCC1)O2` belongs 112 to 114 °C; to `CC(C)c1ccc2c(c1)C=C(/C=C/C=C/C=C/C(=O)O)CO2`, 244 to 246 °C; to `CC(C)(C)OC(=O)N1CC=C(c2ncccc2N)CC1`, 104 to 105 °C.

In turn, `CCOC(=O)C(NC(=O)CS(C)=O)C(=O)OCC` (stereo not drawn) yielded a melting point of 85 to 87 °C. `CC(C)(C)c1cc(C(=O)CBr)cc2c1OCC2(C)C` returned a melting point of 54 to 56 °C. To `O=C1C(c2cccn2Cc2ccccc2)=CC(=O)c2ncccc21` belongs 172 to 173 °C; to `CSC(=Cc1ccc(N)cc1)S(C)=O` (stereo not drawn), 165 to 166 °C. To `O=C(CCc1ccccc1)N[C@H](Cc1ccc(C(F)(F)F)cc1)[C@@H](O)c1cccc(Oc2ccccc2)c1` (racemic) belongs 134 to 135 °C; to `c1ccc(C(c2ccccc2)(c2ccccc2)N2CCCCC2)cc1`, 156 to 158 °C; to `CCOC(=O)c1c(O)c2cc(Cl)cnc2n(Cc2ccccc2)c1=O`, 141 to 142 °C. On to `CCOC(=O)Cc1cc(F)ccc1-c1ccccc1`, for which the melting point was found to be 60.5 °C.

As to `COC(=O)CC1(O)CC2CCC1(CS(=O)(=O)N1CCC3(C=Cc4ccccc43)CC1)C2(C)C` (stereo not drawn), the melting point lay in the range of 81 to 83 °C. On to `CNc1nc(-c2cccc(N(C)C(=O)c3ccccc3)c2)c2cc(OC)c(OC)cc2n1`, for which the melting point lay within 198 to 200 °C. Molecule `COc1ccc2c(c1)c(OCc1ccccc1)c(C(=O)O)n2-c1ccccc1` gave a melting point of 123 °C.

In the case of `COCc1cc(OC)c(-c2ccc(C[C@H](NC(=O)c3c(Cl)cccc3Cl)C(=O)O)cc2)c(OC)c1`, the melting point was 232 to 235 °C.

With `CS(=O)(=O)Nc1ccc(C(=O)c2[nH]c3cc(Cl)ccc3c2CC(=O)O)cc1`, the melting point was in the range of 207 to 210 °C.

In turn, `CCN(CC)c1ccc(C2OC(=O)c3cc(N(C)C)ccc32)c(C)c1` (stereo not drawn) had a melting point of 123 to 125 °C. To `COc1ccccc1COc1ccc(S(=O)(=O)c2cnc(C)nc2Nc2c(C)cc(C)cc2C)cc1` belongs 200 to 202 °C; to `Cc1nc2c(OCc3c(Cl)ccc(N(C)C(=O)CNC=O)c3Cl)cccn2c1Br`, 211 to 212 °C. Molecule `CC1=CN(c2ccc(Cl)c(Cl)c2)SC1` registered a melting point of 160 to 161 °C. To `CC1(C)CCC(=O)Nc2cc(OCCCN3CCN(c4cccc(Cl)c4Cl)CC3)ccc21` belongs 162 to 164 °C; to `O=C(NC1=NN(c2cccc(Cl)c2)CC1)C(F)(F)F`, 143 to 144 °C. To `CCOC(=O)n1nc(-c2cc(C(C)(C)C)c(O)c(C(C)(C)C)c2)c2cccnc21` belongs 161 to 163 °C; to `COc1ccnc(CCc2nc3cc(-c4ccc(S(=O)(=O)N5CCc6cc(OC)c(OC)cc6C5)cc4)cnc3[nH]2)c1`, 207 to 208 °C; to `COc1cc2c(cc1OC)C1(O)c3ccccc3CCN1C2=O` (stereo not drawn), 220 °C. To `CC(=O)Nc1c(C)c(C)c2c(c1[N+](=O)[O-])CC(C)(C)O2` belongs 203 °C; to `CCCCCCC(C)(C)c1cc(OC)c(C2=C[C@@]3(C)CC[C@@H]2C3(C)C)c(OC)c1`, 32 to 33 °C. `CCn1c(=N)c(-c2ccc(-c3ccccc3)cc2)cc2cnc(Nc3ccccc3)nc21`: the melting point is 245 to 249 °C. To `O=c1n(C2CCCCC2)c2cc(Cl)ccc2n1S(=O)(=O)c1ccc([N+](=O)[O-])cc1` belongs 162 °C. To `COC(=O)CCCC(Cl)C1SCC2NC(=O)N(Cc3ccccc3)C21` (stereo not drawn) belongs 141 to 142 °C; to `CCn1c(=S)sc2c(=N)n(NC(=O)c3ccco3)cnc21`, 226 °C. To `CN(NC(=O)OCc1ccccc1)C(=O)c1cc(OCc2ccccc2)c(OCc2ccccc2)c(CNC(=O)OC(C)(C)C)n1` belongs 125 to 127 °C. In the case of `Fc1ccc(-c2[nH]nc(Br)c2-c2ccncc2)cc1F`, the melting point lay within 285 to 290 °C. To `CN(C)CCNc1ccc2c3c(nn2CCNC(=O)OC(C)(C)C)-c2cnccc2C(=O)c13` belongs 225 to 227 °C; to `C=CCC1(C(O)C(c2cccc(Cl)c2)n2ccnc2)CC2C=CC1C2` (stereo not drawn), 134 to 135 °C; to `O=C(NCc1ccccc1)N1C(=O)[C@H](O)[C@@H]1c1ccccc1`, 165 to 168 °C. To `CCOC(C[C@@H](CO)Cn1cnc2c(Cl)nc(N)nc21)OCC` belongs 156 to 158 °C; to `CCOC(=O)c1c(N2CCN(C(=O)c3cccs3)CC2)c2cccnc2n(CCCN(C)C)c1=O`, 84 to 94 °C. `NCCC1Cc2ccc(C3=NNC(=O)CC3)cc2C1` (stereo not drawn) returned a melting point of 189 to 190 °C. To `CSc1cc2c(cc1C(F)(F)F)N(C(=O)Nc1cccc(C(=O)NCCN(C(C)C)C(C)C)c1)CC2` belongs 97 to 99 °C; to `C[C@]12CCC(=O)N[C@@H]1CCc1cc(Sc3cccc4cccnc34)ccc12`, greater than 260 °C; to `O=C(O)c1nc(-c2ccccc2Cl)nc2ccccc12`, 171 °C.

With `COC1CCc2oc3ccc(Br)cc3c(=O)c2C1` (stereo not drawn), the melting point was in the range of 139 to 142 °C. To `Cc1cc(CCCOc2ccc(-c3noc(C(F)(F)F)n3)cc2C)on1` belongs 69 to 70 °C.

Regarding `Cc1c(F)c(N2CCNCC2)c(C)c2c1c(=O)c(C(=O)O)cn2C1CC1`, the melting point fell in the range of 185 to 187 °C. To `CN1CCc2cc(CO)sc2C(c2ccccc2)C1` (stereo not drawn) belongs 112 °C; to `Oc1ccc(Nc2cnc3cnc(-c4ccc(O)cc4)nc3c2)cc1`, 168 to 170 °C; to `CC(C)C1(C)N=C(c2ccccc2C(=O)O)N(O)C1=O` (stereo not drawn), 186 to 188 °C. To `CCOC(=O)c1ccc(OCCCCCCCCCCBr)cc1` belongs 41 to 42 °C.

For the molecule `N#Cc1cc(C(=O)c2ccc(C(F)(F)F)cc2)cc(O)c1O`, the melting point was in the range of 204 to 206 °C. To `C=NC(c1cccc(Nc2n[nH]c3ncnc(Nc4cccc(Cl)c4)c23)c1)N(C)C` (stereo not drawn) belongs 175 to 177 °C; to `CCCc1nc2c(N)nc3ccccc3c2n1CCCCNC(=O)Nc1ccccc1`, 183 to 184 °C; to `CCOC(=O)c1ccc(C=CCN2CCc3nc(N)sc3CC2)cc1`, 111 to 115 °C. To `OC(CCCc1cccnc1)COc1ccc(C=Cc2ccccc2)cc1` (stereo not drawn) belongs 110 to 111 °C; to `CCOC(=O)c1nnc2ccc(C(C)=O)cc2c1O`, 250 to 252 °C; to `COc1ccc(-n2cnnc2S(C)(=O)=O)cc1`, 191 °C.

`CC(=O)NC[C@H]1CN(c2ccc(C(=O)c3cnc4ccc([N+](=O)[O-])cn34)cc2)C(=O)O1` gave a melting point of 223 to 225 °C. To `CCCCCCCCCCCCCC(=O)NN` belongs 107 to 111 °C; to `CCOCc1nc2c(N)nc3c(c2n1CCCCS(N)(=O)=O)CCCC3`, 224 to 227 °C. In the case of `Cc1cc2c(cc1C)Sc1cscc1C(=O)N2`, the melting point lay in the range of 264 to 265 °C. To `CCCCCCCCCC(O)CCc1ccc(O)c(OC)c1` (stereo not drawn) belongs 66 to 68 °C; to `COc1cc(-c2cc(=O)c3ccc(OCCCBr)cc3o2)cc(OC)c1OC`, 156 to 157 °C; to `Nc1cc(C=O)nc(Cc2ccc(F)cc2)c1F`, 130 to 131 °C. To `O=C(Nc1cc(-c2ccnc3c(C(=O)c4cccs4)cnn23)ccc1F)c1ccccc1Cl` belongs 166 to 168 °C; to `CNC(=O)CC1CCN(Cc2cnc3cc(NC(=O)c4ccc(-c5ccc(F)cc5)cc4)c(C)cc3c2)CC1`, 243 °C.

The molecule `O=C1N(CCc2noc(C(F)(F)F)n2)c2ccccc2C12COc1cc3c(cc12)OCO3` (stereo not drawn) showed a melting point of 45 to 48 °C.

Consider `COCOc1cc(OCOC)cc(C(=O)O)c1`, for which the melting point was in the range of 129 to 130 °C.
